Data published in PubChem BioAssay (NCI).
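A five-concentration, 48-hour dose response in 96-well plates underlies each endpoint, interpolated linearly between surrounding concentrations. GI50 is the concentration that inhibits growth by half. Definition used: TGI = concentration required for complete inhibition of growth.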

How the values were obtained:
Assay in all cases: NCI anticancer screen, dose series, 48 h
BT-549 breast = test system: BT-549 breast
KM12 colon = test system: KM12 colon
OVCAR-8 ovarian = test system: OVCAR-8 ovarian
NCI-H460 lung = test system: NCI-H460 lung
SNB-19 CNS = test system: SNB-19 CNS
PC-3 prostate = test system: PC-3 prostate
SK-MEL-2 melanoma = test system: SK-MEL-2 melanoma
ACHN renal = test system: ACHN renal

Compound	GI50 (BT-549 breast)	TGI (BT-549 breast)	GI50 (KM12 colon)	TGI (KM12 colon)	GI50 (OVCAR-8 ovarian)	TGI (OVCAR-8 ovarian)	GI50 (NCI-H460 lung)	TGI (NCI-H460 lung)	GI50 (SNB-19 CNS)	TGI (SNB-19 CNS)	GI50 (PC-3 prostate)	TGI (PC-3 prostate)	GI50 (SK-MEL-2 melanoma)	TGI (SK-MEL-2 melanoma)	GI50 (ACHN renal)	TGI (ACHN renal)
CCN1C(=O)N(CC)C2C1NN=c1s/c(=C3\C(=O)N(C(C)C)c4ccccc43)c(=O)n12 (stereo unspecified)	1.38 µM	66.4 µM	0.384 µM	> 100 µM	0.62 µM	> 53.4 µM	0.354 µM	> 100 µM	0.44 µM	> 100 µM	0.412 µM	> 100 µM	1.24 µM	> 49.7 µM	0.525 µM	> 42.2 µM
c1ccc2[nH]c(-c3ccc(N4CCN(c5ccc(-c6nc7ccccc7[nH]6)cc5)CC4)cc3)nc2c1	> 100 µM	> 100 µM	71.1 µM	> 100 µM	> 100 µM	> 100 µM	> 100 µM	> 100 µM	10.5 µM	> 100 µM	> 100 µM	> 100 µM			> 100 µM	> 100 µM
CC1=C(C(=O)OCc2ccccc2)C(c2ccc3c(c2)OCO3)n2c(nc3ccccc32)N1 (stereo unspecified)		> 100 µM	0.334 µM	> 100 µM	0.628 µM	> 100 µM	0.369 µM	> 100 µM	0.54 µM	> 100 µM	0.458 µM	> 100 µM		> 100 µM	0.63 µM	> 100 µM
CCc1c(C)[nH]c(/C=C2\N=C(c3ccc[nH]3)C=C2OC)c1C	0.129 µM	3.87 µM	0.0944 µM	5.26 µM	0.232 µM	> 24.1 µM	0.094 µM	10.8 µM	1.96 µM	15.7 µM	0.153 µM	10.8 µM	0.234 µM	0.989 µM	0.316 µM	2.19 µM
N=C(N)c1nn(C2OC(CO)C(O)C2O)c2nc[nH]c(=O)c12 (stereo unspecified)	0.33 µM	2.67 µM	0.341 µM	1.46 µM	0.435 µM	7.22 µM	0.487 µM	9.09 µM	2.34 µM	8.71 µM	0.788 µM	6.74 µM	0.19 µM	0.663 µM	0.292 µM	1.99 µM
CC12CCC=CC1CCC1C2CCC2(C)C(c3ccc(=O)oc3)CCC12O (stereo unspecified)	0.0391 µM	0.436 µM	0.134 µM	1.45 µM	0.0999 µM	0.501 µM			0.215 µM	1.23 µM	0.0534 µM	0.317 µM	0.25 µM	0.828 µM	0.0297 µM	0.128 µM
Cc1ccc2[nH]c(C(=O)NN3C(=O)CSC34CCCCC4C)c(-c3ccccc3)c2c1 (stereo unspecified)	20 µM	36.7 µM	14.9 µM	34.7 µM	17.2 µM	35.6 µM	18.2 µM	43.7 µM	19.2 µM	42.6 µM	12.5 µM	30.1 µM	20.9 µM	38.7 µM	17.3 µM	33.3 µM
Nc1nc(/C=C\c2ccc([N+](=O)[O-])o2)nc(N2CCN(c3ccccc3)CC2)n1	15.7 µM	> 100 µM	11.5 µM	62.9 µM	25.8 µM	> 100 µM	3.09 µM	> 100 µM	20 µM	83.8 µM	7.81 µM	60.6 µM	9.91 µM	> 100 µM	4.45 µM	21.6 µM
CCc1ccc(NC(=O)Nc2c[nH]c3ccccc23)cc1	1.68 µM	> 23.8 µM	5.63 µM	> 43.4 µM	13.9 µM	> 47.5 µM	12.7 µM	> 49.6 µM	22.7 µM	> 58.3 µM	5.13 µM	> 63.7 µM	35.5 µM	> 52.1 µM	23.2 µM	> 84.3 µM
COc1cccc(OC(=O)c2ccccc2Nc2ccnc(C(F)(F)F)c2)c1	8.11 µM	55 µM			3.63 µM	29.3 µM	4.1 µM	> 100 µM	3.52 µM	> 100 µM	3.25 µM	> 100 µM	34.4 µM	> 100 µM	3.4 µM	24.7 µM
CN(C)c1ccc2nc3ccc(=[N+](C)C)cc-3oc2c1	11.2 µM	74.2 µM	1.18 µM	> 100 µM	2.13 µM	7.36 µM	2.82 µM	> 100 µM	2.49 µM	> 100 µM	0.52 µM	> 100 µM	2.38 µM	11.1 µM	7.28 µM	52.4 µM
COc1cc2nc(Cl)nc(Nc3cccc(C(=O)/C=C/c4ccccc4)c3)c2cc1OC	2.36 µM	7.83 µM	2.45 µM	> 100 µM	4.99 µM	> 100 µM	4.2 µM	> 100 µM	2.96 µM	> 31.8 µM	3.86 µM	27.8 µM	> 21 µM	> 75.9 µM	3.51 µM	> 100 µM
CC(=O)OC1c2ccccc2CC2(OC(C)=O)c3ccccc3C12 (stereo unspecified)				> 100 µM		> 100 µM		> 100 µM		> 100 µM		> 100 µM		> 100 µM		> 100 µM
C=C(C)[C@@H]1CC[C@]2(C(=O)NCCCN)CC[C@]3(C)[C@H](CC[C@@H]4[C@@]5(C)CC[C@H](O)C(C)(C)[C@@H]5CC[C@]43C)[C@@H]12	23.8 µM	75.9 µM	17.3 µM	52.9 µM	27.7 µM	87.7 µM	14 µM	> 100 µM	24.7 µM	84.5 µM	12.6 µM	37.8 µM	27.3 µM	85.8 µM	21.7 µM	59.9 µM
Fc1ccc(-c2nc3n(c2-c2ccncc2)CCS3)cc1	> 25 µM	> 25 µM	> 25 µM	> 25 µM	> 25 µM	> 25 µM	> 25 µM	> 25 µM	> 25 µM	> 25 µM	> 25 µM	> 25 µM	> 25 µM	> 25 µM	> 25 µM	> 25 µM
CCCN(Cc1ccc(F)cc1)c1ccc(CO)c(Cl)c1	11.7 µM	25.6 µM	13 µM	27.3 µM	11.5 µM	25.8 µM	0.359 µM	11.5 µM	12.7 µM	26.8 µM	11.6 µM	24.6 µM	2.99 µM	13.3 µM	9.98 µM	22.8 µM
CCN(CC)CCOc1ccc(C(=C(C)c2ccc(Cl)cc2)c2ccc(OCCN(CC)CC)cc2)cc1	1.33 µM	4.22 µM	0.666 µM	1.37 µM	0.731 µM	1.77 µM	0.63 µM	1.18 µM	0.699 µM	1.56 µM	0.63 µM	1.36 µM	0.661 µM	1.32 µM	0.614 µM	1.15 µM
CC[C@H](Nc1nc(N)nc(C)c1C#N)c1nc2cccc(CN(C)c3ncc(C(=O)NO)cn3)c2c(=O)n1-c1ccccc1	2.26 µM	12.5 µM	1.26 µM	5.21 µM	0.704 µM	10.3 µM	1.15 µM	11.2 µM	0.827 µM	6.4 µM	1.33 µM	8.14 µM	1.35 µM	8.75 µM	1.26 µM	3.79 µM
O=C1c2ccccc2C(=O)N1CC1(C(=O)O)NCCS1(=O)=O (stereo unspecified)		> 100 µM		> 100 µM		> 100 µM		> 100 µM		> 100 µM		> 100 µM		> 100 µM		> 100 µM
CSc1nnc(CCSc2ccnc3c(C(F)(F)F)cccc23)o1	31.4 µM	> 100 µM	> 100 µM	> 100 µM	> 100 µM	> 100 µM	> 100 µM	> 100 µM	61.6 µM	> 100 µM	88.4 µM	> 100 µM	> 100 µM	> 100 µM	> 100 µM	> 100 µM
Cc1ccc(C(=O)Nc2ccc(S(=O)(=O)O)c3cc(S(=O)(=O)O)cc(S(=O)(=O)O)c23)cc1NC(=O)c1cccc(N)c1		> 100 µM		> 100 µM		> 100 µM		> 100 µM		> 100 µM		> 100 µM		> 100 µM		> 100 µM
CN(C)CCCNC(=O)c1cc(NC(=O)CCNS(=O)(=O)c2ccc3c(c2)C(=O)c2ccccc2C3=O)cn1C	> 100 µM	> 100 µM	> 100 µM	> 100 µM	> 100 µM	> 100 µM	> 100 µM	> 100 µM	> 100 µM	> 100 µM	> 100 µM	> 100 µM	> 100 µM	> 100 µM		
CCOC(=O)c1c2c(n(CC(C)C)c1C)-c1nc[nH]c1C(=O)C2=O	16.4 µM	30.4 µM	16.9 µM	31.2 µM	15.8 µM	29.3 µM	16.5 µM	30.1 µM	16.4 µM	30.1 µM			19.4 µM	34 µM	14.2 µM	27.2 µM
